Here are results for 48 compounds from US20250042889A1, “3CLPRO PROTEASE INHIBITOR” (SHANGHAI QILU PHARMACEUTICAL RESEARCH AND DEVELOPMENT …, priority 2021, published 2025).

Structures are written as SMILES.

The target in the assay is SARS-COV-2 3CLpro/Mpro protease (Severe acute respiratory syndrome coronavirus 2 (2019-nCoV) (SARS-CoV-2), UniProt P0DTD1). Description: Inhibitory effect on SARS-COV-2 3CLpro/Mpro protease by fluorescence resonance energy transfer. It counts as biochemical. The conditions noted are these: activity intervals A-D, read-out: IC50 (nM), Inhibition on SARS-CoV-2 3CLpro/Mpro protease.
Consider `CNc1cncc(C(=O)N2C[C@H](Nc3c(C(=O)N4C[C@@H](C)O[C@@H](C)C4)cc(Br)cc3[N+](=O)[O-])C[C@H]2C(=O)Nc2ccn(C)n2)c1` [Example 385], for which the IC50 was 10 to 50 nM. For `CNc1cncc(C(=O)N2C[C@H](Nc3c(C(=O)N4C[C@@H](C)O[C@@H](C)C4)cc(Br)cc3[N+](=O)[O-])C[C@H]2C(=O)NCc2ccnc(C(F)(F)F)c2)c1` [Example 419] the value was 50 to 100 nM. For `CNc1cncc(C(=O)N2CCC[C@@H](Nc3c(C(=O)N4CCOC(C)(C)C4)cc(Br)cc3[N+](=O)[O-])C2)c1` [Example 340] the value was 10 to 50 nM; for `O=C(c1cncc(Br)c1)N1CCC[C@@H](Nc2c(C(=O)N3CC4CC4C3)cc(Br)cc2[N+](=O)[O-])C1` (stereo partly drawn) [Example 44], below 10 nM; for `CNc1cncc(C(=O)N2C[C@H](Nc3c(C(=O)N4C[C@@H](C)O[C@@H](C)C4)cc(Br)cc3[N+](=O)[O-])C[C@@H](O[C@H]3CCOC3)C2)c1` [Example 452, (5-Bromo-2-(((3R,5R)-1-(5-(methylamino)nicotinoyl)-5-((S)-tetrahydrofuran-3-yl)oxy)piperidin-3-amino)-3-nitrophenyl)((2S,6R)-2,6-dimethylmorpholinyl)methanone], 50 to 100 nM. As for `CNc1cncc(C(=O)N2C[C@H](Nc3c(C(=O)N4CCN(CC(F)(F)F)C(=O)C4)cc(Br)cc3[N+](=O)[O-])C3(CC3)C2)c1` [Example 85], the IC50 lay in the range of 10 to 50 nM. As to `CNc1cncc(C(=O)N2CCC[C@@H](Nc3c(C(=O)N4CC(C)CC(O)C4)cc(Br)cc3[N+](=O)[O-])C2)c1` (stereo partly drawn) [Example 258], the IC50 is 10 to 50 nM. Regarding `CN1CCN(C(=O)c2cc(Br)cc([N+](=O)[O-])c2N[C@@H]2CCCC[C@@H]2NC(=O)c2cncc3cc(Cl)ccc23)CC1` [Example 123], the IC50 is below 10 nM. Take `C[C@@H]1CN(C(=O)c2cc(Br)cc([N+](=O)[O-])c2N[C@@H]2CCCN(C(=O)[C@H]3CC(=O)N[C@@H](C)C3)C2)C[C@H](C)O1` [Example 254]: the IC50 was 10 to 50 nM. For the compound `CNc1cncc(C(=O)N2CCC[C@@H](Nc3c(C(=O)N4CCO[C@H](C(F)F)C4)cc(Br)cc3[N+](=O)[O-])C2)c1` [Example 55], the IC50 lay within 10 to 50 nM.

`CNc1cncc(C(=O)N2CCC[C@@H](Nc3c(C(=O)N4CC(F)(F)CC(F)(F)C4)cc(Br)cc3[N+](=O)[O-])C2)c1` [Example 307]: the IC50 lay within 10 to 50 nM. With `CNc1cncc(C(=O)N2C[C@H](Nc3c(C(=O)N4CCO[C@H](C)C4)cc(Br)cc3[N+](=O)[O-])[C@@H](OC)C2)c1` [Example 322], the IC50 is 10 to 50 nM. As for `CNc1cncc(C(=O)N2C[C@H](Nc3c(C(=O)N4C[C@@H](C)O[C@@H](C)C4)cc(Br)cc3[N+](=O)[O-])C[C@H]2C(=O)N2CCc3nn(C)cc3C2)c1` [Example 365], the figure is 50 to 100 nM; as for `O=C(c1cc(Br)c[n+]([O-])c1)N1CCC[C@@H](Nc2c(C(=O)N3CCC(F)(F)CC3)cc(Br)cc2[N+](=O)[O-])C1` [Example 105], 50 to 100 nM; as for `CNc1cncc(C(=O)N2C[C@H](Nc3c(C(=O)N4CCN(CCOC)CC4)cc(Br)cc3[N+](=O)[O-])C(C)(O)C2)c1` (stereo partly drawn) [Example 318], 10 to 50 nM. As for `Nc1cncc(C(=O)N2CCC[C@@H](Nc3c(C(=O)N4CCOCC4)cc(Br)cc3[N+](=O)[O-])C2)c1` [Example 114], the figure is 10 to 50 nM.

Regarding `O=C(N[C@H]1CCOC[C@H]1Nc1c(C(=O)N2CCC(F)(F)CC2)cc(Br)cc1[N+](=O)[O-])c1cncc2cc(Cl)ccc12` [Example 185], the IC50 is 10 to 50 nM. For `CNc1cncc(C(=O)N2C[C@H](Nc3c(C(=O)N4C[C@@H](C)O[C@@H](C)C4)cc(Br)cc3[N+](=O)[O-])C[C@H]2C(=O)NC2CNC(=O)C2)c1` (stereo partly drawn) [Example 378] the value was 10 to 50 nM; for `O=C(N[C@H]1CCCC[C@H]1Nc1c(C(=O)N2CCOCC2)cc(Br)cc1[N+](=O)[O-])c1cc(=O)[nH]c2ccccc12` [Example 107], 10 to 50 nM. Take `O=C(c1cncc(I)c1)N1CC(Nc2c(C(=O)N3CCOCC3)cc(Br)cc2[N+](=O)[O-])C(F)(F)C1` (stereo not drawn) [Example 167]: the IC50 was 10 to 50 nM. With `CNc1cncc(C(=O)N2CCC[C@@H](Nc3c(C(=O)N4CCn5cncc5C4)cc(Br)cc3[N+](=O)[O-])C2)c1` [Example 314], the IC50 lay in the range of 10 to 50 nM. Regarding `Cc1cc(C(=O)N2CC(Nc3c(C(=O)N4CCN(CC(F)(F)F)CC4)cc(Br)cc3[N+](=O)[O-])C(F)(F)C2)cc(=O)[nH]1` (stereo not drawn) [Example 157], the IC50 lay within 50 to 100 nM. On to `C[C@@H]1CN(C(=O)c2cc(Br)cc([N+](=O)[O-])c2N[C@@H]2CCCC[C@@H]2NC(=O)c2cncc3cc(Cl)ccc23)C[C@H](C)O1` [Example 113], for which the IC50 was below 10 nM.

In the case of `C[C@@H]1CN(C(=O)c2cc(Br)cc([N+](=O)[O-])c2N[C@H]2CN(C(=O)c3cncc(Br)c3)CC2(C)C)C[C@@H](C)O1` [Example 220], the IC50 is 50 to 100 nM. As for `C[C@@H]1CN(C(=O)c2cc(Br)cc([N+](=O)[O-])c2N[C@@H]2CCCN(C(=O)c3cc(=O)[nH]c4cc(Cl)ccc34)C2)C[C@H](C)O1` [Example 129], the figure is 10 to 50 nM; as for `N[C@@H]1C[C@H](O)CN(C(=O)c2cc(Br)cc([N+](=O)[O-])c2N[C@@H]2CCCC[C@@H]2NC(=O)c2cncc3ccccc23)C1` [Example 141], 10 to 50 nM.

Consider `O=C(c1cc(Br)cc([N+](=O)[O-])c1N[C@@H]1CCCN(C(=O)c2cc(=O)[nH]c3ccccc23)C1)N1CCC(N2CCOCC2)CC1` [Example 134], for which the IC50 was 10 to 50 nM. Consider `CNc1cncc(C(=O)N2C[C@H](Nc3c(C(=O)N4C[C@@H](C)O[C@@H](C)C4)cc(Br)cc3[N+](=O)[O-])C[C@H]2C(=O)NC2CC2)c1` [Example 388], for which the IC50 was in the range of 50 to 100 nM. Consider `CNc1cncc(C(=O)N2CCC[C@@H](Nc3c(C(=O)N4C[C@@H]5C[C@H]4CO5)cc(Br)cc3[N+](=O)[O-])C2)c1` [Example 291], for which the IC50 was 10 to 50 nM. Take `O=C(c1cc(Br)cc([N+](=O)[O-])c1N[C@@H]1CCCN(C(=O)c2cncc3ccccc23)C1)N1CCC(F)(F)CC1` [Example 6, (R)-(5-bromo-2-((1-(isoquinolin-4-carbonyl)piperidin-3-yl)amino)-3-nitrophenyl)(4,4-difluoropiperidin-1-yl)methanone]: the IC50 was below 10 nM. Take `COCCN1[C@H](C)CN(C(=O)c2cc(Br)cc([N+](=O)[O-])c2N[C@@H]2COCC[C@@H]2NC(=O)c2cncc3ccccc23)C[C@@H]1C` [Example 195]: the IC50 was in the range of 10 to 50 nM. Turning to `CNc1cncc(C(=O)N2C[C@H](Nc3c(C(=O)N4C[C@@H](C)O[C@H](C)C4)cc(Br)cc3[N+](=O)[O-])C(F)(F)C2)c1` [Example 199], the IC50 fell in the range of 50 to 100 nM.

Take `CNc1cncc(C(=O)N2C[C@H](Nc3c(C(=O)N4C[C@@H](C)O[C@@H](C)C4)cc(Br)cc3[N+](=O)[O-])[C@@H](OCc3cncn3C)C2)c1` [Example 462, (5-Bromo-2-(((3S,4S)-4-((1-methyl-1H-imidazol-5-yl)methoxy)-1-(5-(methylamino)nicotinoyl)pyrrolidin-3-yl)amino)-3-nitrophenyl)((2S,6R)-2,6-dimethylmorpholinyl)methanone]: the IC50 was 10 to 50 nM. For the compound `O=C(c1cc(Br)cc([N+](=O)[O-])c1N[C@@H]1CCCN(C(=O)c2cc(=O)[nH]c3cc(Cl)ccc23)C1)N1CCOCC1` [Example 117], the IC50 lay in the range of 10 to 50 nM. Turning to `CNc1cncc(C(=O)N2C[C@H](Nc3c(C(=O)N4C[C@@H](C)O[C@@H](C)C4)cc(Br)cc3[N+](=O)[O-])C[C@H]2C(=O)Nc2cnn(C)c2)c1` [Example 401], the IC50 fell in the range of 50 to 100 nM. For the compound `O=C(c1cc(Br)cc([N+](=O)[O-])c1N[C@@H]1CCCN(C(=O)c2cncc3ccccc23)C1)N1CCCCC1` [Example 13, (R)-(5-bromo-2-((1-(isoquinolin-4-carbonyl)piperidin-3-yl)amino)-3-nitrophenyl)(piperidin-1-yl)methanone], the IC50 was below 10 nM. For `C[C@@H]1CN(C(=O)c2cc(Br)cc([N+](=O)[O-])c2N[C@@H]2CCCN(C(=O)c3cncc4[nH]ncc34)C2)C[C@H](C)O1` [Example 144], the IC50 was in the range of 10 to 50 nM. For `C[C@@H]1CN(C(=O)c2cc(Br)cc([N+](=O)[O-])c2N[C@@H]2CCCC[C@@H]2NC(=O)c2cc(=O)[nH]c3ccccc23)C[C@H](C)O1` [Example 121], the IC50 was below 10 nM. `CNc1cncc(C(=O)N2C[C@H](Nc3c(C(=O)N4CCOC[C@H]4C)cc(Br)cc3[N+](=O)[O-])[C@@H](OC)C2)c1` [Example 367]: the IC50 is 10 to 50 nM. With `CNc1cncc(C(=O)N2CCC[C@@H](Nc3c(C(=O)N4CCCOC(C)C4)cc(Br)cc3[N+](=O)[O-])C2)c1` (stereo partly drawn) [Example 334], the IC50 was in the range of 10 to 50 nM. `CNc1cncc(C(=O)N2CCC[C@@H](Nc3c(C(=O)N4CCC5(CCOC5)CC4)cc(Br)cc3[N+](=O)[O-])C2)c1` [Example 230]: the IC50 is below 10 nM. With `O=C(c1cc(Br)cc([N+](=O)[O-])c1N[C@@H]1CCN(C(=O)c2cncc3ccccc23)C1)N1CCCC1` [Example 40], the IC50 is 10 to 50 nM. Turning to `C[C@@H]1CN(C(=O)c2cc(Br)cc([N+](=O)[O-])c2N[C@@H]2CCCN(C(=O)c3cncc(I)c3)C2)C[C@H](C)N1` [Example 115], the IC50 is 10 to 50 nM. On to `Cc1cc(C(=O)N2CC(Nc3c(C(=O)N4CCC5(CCCC5)CC4)cc(Br)cc3[N+](=O)[O-])C(F)(F)C2)cc(=O)[nH]1` (stereo not drawn) [Example 156], for which the IC50 lay within 10 to 50 nM. On to `Cc1cncc(C(=O)N2CCC[C@@H](Nc3c(C(=O)N4CCC(F)(F)CC4)cc(Br)cc3[N+](=O)[O-])C2)c1` [Example 74], for which the IC50 was in the range of 50 to 100 nM. `CNc1cncc(C(=O)N2C[C@H](Nc3c(C(=O)N4CCOC(F)(F)C4)cc(Br)cc3[N+](=O)[O-])[C@@H](OC)C2)c1` [Example 375]: the IC50 lay in the range of 10 to 50 nM. For `CNc1cncc(C(=O)N2CCC[C@@H](Nc3c(C(=O)N4CCn5cccc5C4)cc(Br)cc3[N+](=O)[O-])C2)c1` [Example 323] the value was 10 to 50 nM; for `CNc1cncc(C(=O)N2CCC[C@@H](Nc3c(C(=O)N4CCC(C)CC4)cc(Br)cc3[N+](=O)[O-])C2)c1` [Example 248], 10 to 50 nM.
